Assay results reported in paper PMC13266999, “Designing Antibiotics with Inherent Resistance to Efflux as a Strategy to Revive Discovery against Multidrug-Resistant Pathogens” (Journal of Medicinal Chemistry, 2026).
Converted amounts (≈) assume the structure as drawn. Read-outs that look alike come from different tables or passages of the source.

What was measured:
E. faecalis = assay: MIC (microbroth dilution); assay type: cell-based, Enterococcus faecalis
Experimental: (§1) All bacteria were maintained on tryptic soy agar (TSA), except Streptococcus spp., which were maintained on Columbia agar plates containing 5% horse blood. […] Bacteria were grown to stationary phase in liquid culture overnight, with shaking at 200 rpm, before being back diluted to the relevant starting concentration for each assay below. MICs were measured by the microbroth dilution method. […] Absorbance at OD600 was read on a CLARIOstar spectrophotometer (BMG Labtech) and the MIC was defined as the minimum concentration of compound where no visible growth was detected. […] MICs were also performed in the presence of the outer membrane permeator, polymyxin b nonapeptide (PMBN) following the same MIC method but with the following variation. The 2-fold dilution series of compound was prepared as above, then 50 μL of PMBN at a final concentration of 30 μg/mL was added to relevant wells, while 50 μL/well of blank media was added to the remaining wells. Bacteria were then added at 50 μL/well for a starting concentration as above. […] The MICs were read and defined as above. All animal procedures were performed by the contract research organization Pharmacology Discovery Services Taiwan in accordance with the Guide for the Care and Use of Laboratory Animals. The procedures were approved by the Institutional Ethics Committee of Pharmacology Discovery Services Taiwan, Ltd. (approval no. AB127662), in compliance with animal welfare legislation in Taiwan.

E. faecium = assay: MIC (microbroth dilution); assay type: cell-based, Enterococcus faecium
Experimental: (§2) All bacteria were maintained on tryptic soy agar (TSA), except Streptococcus spp., which were maintained on Columbia agar plates containing 5% horse blood. All bacterial assays were carried out in tryptic soy broth (TSB), except for Streptococcus spp. which were grown in cation-adjusted Mueller Hinton broth containing 2.5% lysed horse blood. Bacteria were grown to stationary phase in liquid culture overnight, with shaking at 200 rpm, before being back diluted to the relevant starting concentration for each assay below. MICs were measured by the microbroth dilution method. […] Absorbance at OD600 was read on a CLARIOstar spectrophotometer (BMG Labtech) and the MIC was defined as the minimum concentration of compound where no visible growth was detected. The compounds were prepared as a DMSO stock and equivalent concentrations of DMSO had no effect on bacterial growth. MICs were also performed in the presence of the outer membrane permeator, polymyxin b nonapeptide (PMBN) following the same MIC method but with the following variation. The 2-fold dilution series of compound was prepared as above, then 50 μL of PMBN at a final concentration of 30 μg/mL was added to relevant wells, while 50 μL/well of blank media was added to the remaining wells. Bacteria were then added at 50 μL/well for a starting concentration as above. Thirty μg/mL of PMBN had no effect on bacterial growth. The MICs were read and defined as above. All animal procedures were performed by the contract research organization Pharmacology Discovery Services Taiwan in accordance with the Guide for the Care and Use of Laboratory Animals. The procedures were approved by the Institutional Ethics Committee of Pharmacology Discovery Services Taiwan, Ltd. (approval no. AB127662), in compliance with animal welfare legislation in Taiwan.

S. haemolyticus = assay: MIC (microbroth dilution); assay type: cell-based, Staphylococcus haemolyticus; settings: SH324
Experimental: as §2

Acinetobacter baumannii = assay: MIC (microbroth dilution); assay type: cell-based
Experimental: as §2

Pseudomonas aeruginosa = assay: MIC (microbroth dilution); assay type: cell-based
Experimental: as §2

E. coli = assay: MIC (microbroth dilution); assay type: cell-based; settings: Escherichia coli
Experimental: as §1

A. baumannii = A. baumannii efflux chequerboard assay; assay type: cell-based, Acinetobacter baumannii; settings: for MIC: Acinetobacter baumannii
Experimental: Checkerboard assays were performed by preparing two separate 2-fold dilution series of compounds in two 96 well plates, one horizontally, one vertically. […] Plates were incubated at 37 C for 20 h and the absorbance (OD600) was read on a CLARIOstar spectrophotometer (BMG Labtech). The fractional inhibitory concentration was calculated as follows: ΣFIC = [(MIC of A in combination)/(MIC of A alone)] + [(MIC of B in combination)/(MIC of B alone)].

S. aureus NCTC 13616 = assay: Time-kill assay; assay type: cell-based; settings: 4x MIC, 24 hours
Experimental: Time-kill assays were performed as defined previously.

O=C(O)c1cn(C2CC2)c2cc(N3CCNCC3)c(F)cc2c1=O [Ciprofloxacin, ciprofloxacin, reference compound]
MIC (E. faecalis; EF602): 64 µg/mL (≈ 193 µM) | MIC (E. faecalis; Enterococcus faecalis, NCTC775, NCTC 775, read-out: MIC): 1 µg/mL (≈ 3.02 µM) | MIC (E. faecalis; Enterococcus faecalis, NCTC12204, NCTC 12204, read-out: MIC): 1 µg/mL (≈ 3.02 µM) | MIC (E. faecalis; NCTC 775): 1 µg/mL (≈ 3.02 µM) | MIC (E. faecium; EF205): 128 µg/mL (≈ 386 µM) | MIC (E. faecium; NCTC 12204): 1 µg/mL (≈ 3.02 µM) | MIC (S. haemolyticus): 16 µg/mL (≈ 48.3 µM) | MIC (Acinetobacter baumannii; Acinetobacter baumannii, 86, oxa23): 128 µg/mL (≈ 386 µM) | MIC (Acinetobacter baumannii; Acinetobacter baumannii, 96, oxa23): 128 µg/mL (≈ 386 µM) | MIC (Acinetobacter baumannii; Acinetobacter baumannii, A318): 32 µg/mL (≈ 96.6 µM) | MIC (Acinetobacter baumannii; Acinetobacter baumannii, A319): 32 µg/mL (≈ 96.6 µM) | MIC (Acinetobacter baumannii; Acinetobacter baumannii, A600 colR): 32 µg/mL (≈ 96.6 µM) | MIC (Acinetobacter baumannii; Acinetobacter baumannii, AB01335 adeG183::T26): 4 µg/mL (≈ 12.1 µM) | MIC (Acinetobacter baumannii; Acinetobacter baumannii, AB05215 adeS132::T26): 2 µg/mL (≈ 6.04 µM) | MIC (Acinetobacter baumannii; Acinetobacter baumannii, AB05218 adeS141::T26): 4 µg/mL (≈ 12.1 µM) | MIC (Acinetobacter baumannii; Acinetobacter baumannii, AB05219 adeR103::T26): 4 µg/mL (≈ 12.1 µM) | MIC (Acinetobacter baumannii; Acinetobacter baumannii, AB05222 adeR160::T101): 2 µg/mL (≈ 6.04 µM) | MIC (Acinetobacter baumannii; Acinetobacter baumannii, AB05226 adeA165::T26): 4 µg/mL (≈ 12.1 µM) | MIC (Acinetobacter baumannii; Acinetobacter baumannii, AB05227 adeA138::T26): 2 µg/mL (≈ 6.04 µM) | MIC (Acinetobacter baumannii; Acinetobacter baumannii, AB05228 adeB150::T26): 2 µg/mL (≈ 6.04 µM) | MIC (Acinetobacter baumannii; Acinetobacter baumannii, AB05230 adeB181::T26): 2 µg/mL (≈ 6.04 µM) | MIC (Acinetobacter baumannii; Acinetobacter baumannii, BAA1709, BAA-1709, read-out: MIC): 0.25 µg/mL (≈ 0.754 µM) | MIC (Acinetobacter baumannii; Acinetobacter baumannii, BAA1710, BAA-1710 (AYE), read-out: MIC): 64 µg/mL (≈ 193 µM) | MIC (Acinetobacter baumannii; Acinetobacter baumannii, BAA2093, BAA-2093, read-out: MIC): ≤ 0.125 µg/mL | MIC (Acinetobacter baumannii; Acinetobacter baumannii, NCTC10303, NCTC 10303, read-out: MIC): 0.5 µg/mL (≈ 1.51 µM) | MIC (Acinetobacter baumannii; Acinetobacter baumannii, NCTC12156, NCTC 12156, read-out: MIC): 1 µg/mL (≈ 3.02 µM) | MIC (Acinetobacter baumannii; Acinetobacter baumannii, NCTC13302, NCTC 13302, oxa24, read-out: MIC): 32 µg/mL (≈ 96.6 µM) | MIC (Acinetobacter baumannii; Acinetobacter baumannii, NCTC13424, NCTC 13424, oxa23): > 128 µg/mL | MIC (Acinetobacter baumannii; Acinetobacter baumannii, UKA1, oxa23, read-out: MIC): 8 µg/mL (≈ 24.1 µM) | MIC (Acinetobacter baumannii; Acinetobacter baumannii, UKA2, Low resistance, read-out: MIC): 64 µg/mL (≈ 193 µM) | MIC (Acinetobacter baumannii; Acinetobacter baumannii, UKA9, read-out: MIC): 0.25 µg/mL (≈ 0.754 µM) | MIC (Acinetobacter baumannii; Acinetobacter baumannii, UKA12, oxa23): > 128 µg/mL | MIC (Acinetobacter baumannii; Acinetobacter baumannii, UKA13, oxa23): > 128 µg/mL | MIC (Acinetobacter baumannii; Acinetobacter baumannii, UKA15, oxa23, read-out: MIC): 16 µg/mL (≈ 48.3 µM) | MIC (Acinetobacter baumannii; Acinetobacter baumannii, UKA19, read-out: MIC): 8 µg/mL (≈ 24.1 µM) | MIC (Acinetobacter baumannii; Acinetobacter baumannii, W1, read-out: MIC): 128 µg/mL (≈ 386 µM) | MIC50 (Acinetobacter baumannii; Acinetobacter baumannii, panel of 25 A. baumannii strains): 32 µg/mL (≈ 96.6 µM) | MIC (Acinetobacter baumannii; BAA-1710 (AYE), listed as 1): > 128 µg/mL | MIC (Pseudomonas aeruginosa; NCTC 13437): 64 µg/mL (≈ 193 µM) | MIC (Pseudomonas aeruginosa; Pseudomonas aeruginosa, PAO1, PAO1): 0.25 µg/mL (≈ 0.754 µM) | MIC (E. coli; 319238/UR): > 128 µg/mL | MIC (E. coli; LEC077): 0.25 µg/mL (≈ 0.754 µM) | MIC (E. coli; LEC081): 0.25 µg/mL (≈ 0.754 µM) | MIC +50 (0.25x MIC) (A. baumannii; A. baumannii ATCC 17978): 0.0017 to 0.188 µg/mL | MIC +50 (0.5x MIC) (A. baumannii; A. baumannii ATCC 17978): 0.007 to 0.055 µg/mL | MIC +50 (0.25x MIC) (A. baumannii; A. baumannii AYE): 3.5 to 15.5 µg/mL | MIC +50 (0.5x MIC) (A. baumannii; A. baumannii AYE): 0.188 to 0.9 µg/mL | MIC (A. baumannii; ATCC17978, read-out: MIC alone): 0.25 µg/mL | MIC (A. baumannii; read-out: MIC alone): 64 µg/mL | time-kill profile (S. aureus NCTC 13616): comparable bacteriostatic profiles
